From patent US12404241B2 (Celgene Corporation, priority 2018, dated 2025) come the findings set out here.

This assay concerns the target T1, AR (Homo sapiens, UniProt P10275).
T1 construct: endogenous in cells; host or cells: VCaP cells
T1 sequence (P10275 1-920): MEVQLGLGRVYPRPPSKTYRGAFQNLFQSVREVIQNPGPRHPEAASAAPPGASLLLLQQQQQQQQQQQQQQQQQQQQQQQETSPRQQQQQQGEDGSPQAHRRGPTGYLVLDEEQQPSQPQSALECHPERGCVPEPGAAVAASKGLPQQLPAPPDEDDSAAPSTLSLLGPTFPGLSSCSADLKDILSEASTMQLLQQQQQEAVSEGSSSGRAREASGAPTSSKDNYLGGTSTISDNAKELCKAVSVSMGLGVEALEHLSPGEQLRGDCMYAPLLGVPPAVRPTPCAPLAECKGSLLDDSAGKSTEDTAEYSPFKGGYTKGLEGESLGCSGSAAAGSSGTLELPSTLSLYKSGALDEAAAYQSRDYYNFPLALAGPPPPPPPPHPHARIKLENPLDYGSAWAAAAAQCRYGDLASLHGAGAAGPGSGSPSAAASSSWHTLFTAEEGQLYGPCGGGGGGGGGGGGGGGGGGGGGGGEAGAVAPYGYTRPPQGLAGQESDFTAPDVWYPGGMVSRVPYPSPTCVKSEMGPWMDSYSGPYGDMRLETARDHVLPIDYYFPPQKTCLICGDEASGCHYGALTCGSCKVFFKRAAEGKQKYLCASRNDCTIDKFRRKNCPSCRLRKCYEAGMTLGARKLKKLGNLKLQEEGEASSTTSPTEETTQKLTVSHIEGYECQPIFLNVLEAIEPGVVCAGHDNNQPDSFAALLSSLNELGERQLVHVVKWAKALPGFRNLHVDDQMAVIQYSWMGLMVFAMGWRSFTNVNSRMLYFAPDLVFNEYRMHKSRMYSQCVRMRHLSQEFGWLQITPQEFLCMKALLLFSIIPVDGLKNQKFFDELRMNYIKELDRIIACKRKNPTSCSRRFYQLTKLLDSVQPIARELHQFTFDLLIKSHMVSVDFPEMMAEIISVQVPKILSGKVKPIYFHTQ
Put plainly: VCAP AR Degradation Assay. In kind it is cell-based. The conditions noted are these: for Y (AR degradation efficiency, % of DMSO control): class symbols *; for DC50: class symbols A-C, read-out: DC50. As to the method:
VCAP AR Degradation Assay. Test compounds were pre-dispensed into a Corning CellBind 96-well clear bottom plate (Cat #3300) using an acoustic dispenser to make a 10-point concentration series at 1:3 dilution for each compound. The final top concentration of each compound was 5 μM. DMSO at a final concentration of 0.1% was used as a control. VCaP cells cultured in DMEM with 8% fetal bovine serum (FBS) were seeded at 50K cells per well in a 200 μL volume into the compound plate and incubated at 37° C. in a CO2 incubator for 24 h. The medium was carefully removed from the cells and the plate was placed on ice. One hundred μL of ice-cold 1x cell lysis buffer from Cell Signaling Technologies (Cat #9803) was added to each well of the cells and the plate was incubated at 4° C. on a shaker for 1 h. Fifteen μL of cell lysate was used for AR ELISA detection using a PathScan Total Sandwich AR ELISA kit (Cell Signaling Technology, Cat #12580). AR levels in compound-treated wells were normalized to that of DMSO control and expressed as percent of control (PoC) (y). A Four Parameter Logistic Model (Sigmoidal Dose-Response Model) was used to determine the compound's DC50, and EC50, using the following equation:
[formula] • A=YMin (lowest AR level normalized to DMSO control in response to compound treatment, as determined by curve fit) • B=YMax (maximum AR level as determined by curve fit) • C=EC50 • D=Hill Slope • x=compound concentration • EC50=the concentration of compound when y=(YMax−YMin)/2 • DC50=the concentration of the compound when y=50% of DMSO control (50% AR degradation) • y=AR protein level normalized to DMSO control
The lowest measured AR level normalized to DMSO control in response to compound treatment, termed Y value, was used to characterize the compound-mediated AR degradation efficiency.

Structures can show the parent of a compound that is named as a salt. Some results are limits rather than exact numbers.

As to `CCc1cc(N2C(=S)N(c3cnc(C#N)c(C(F)(F)F)c3)C(=O)C2(C)C)ccc1OCCN1CCN(CC(=O)Nc2cc(NC3CCC(=O)NC3=O)ccc2Cl)CC1` (single isomer, unassigned) [Example 47], the “Y (AR degradation efficiency, % of DMSO control)” value is on record as “* (0<Y<=25%)” and the DC50 was less than 100 nM.
On to `N#Cc1ccc(N2C(=O)C3(CCOC3)N(c3ccc(OCCN4CCN(CC(=O)Nc5cc(Cl)cc(NC6CCC(=O)NC6=O)c5)CC4)c(F)c3)C2=S)cc1C(F)(F)F` (single isomer, unassigned) [Example 54, N-(3-chloro-5-(2,6-dioxopiperidin-3-ylamino)phenyl)-2-(4-(2-(4-(3-(4-cyano-3-(trifluoromethyl)phenyl)-4-oxo-2-thioxo-7-oxa-1,3-diazaspiro[4.4]nonan-1-yl)-2-fluorophenoxy)ethyl)piperazin-1-yl)acetamide], for which the “Y (AR degradation efficiency, % of DMSO control)” value is on record as “* (0<Y<=25%)” and the DC50 was less than 100 nM.
Consider `N#Cc1ccc(N2C(=O)C3(CCOC3)N(c3ccc(OCCN4CCN(CC(=O)Nc5cc(Cl)cc(NC6CCC(=O)NC6=O)c5)CC4)c(F)c3)C2=S)cc1C(F)(F)F` (single isomer, unassigned) [Example 55, N-(3-chloro-5-(2,6-dioxopiperidin-3-ylamino)phenyl)-2-(4-(2-(4-(3-(4-cyano-3 (trifluoromethyl)phenyl)-4-oxo-2-thioxo-7-oxa-1,3-diazaspiro[4.4]nonan-1-yl)-2-fluorophenoxy)ethyl)piperazin-1-yl)acetamide], for which the “Y (AR degradation efficiency, % of DMSO control)” value is “** (25%<Y<=35%)” and the DC50 lay in the range of 100 to 500 nM.
`CCc1cc(N2C(=S)N(c3cnc(C#N)c(C(F)(F)F)c3)C(=O)C2(C)C)ccc1OCCN1CCN([C@H](C)C(=O)Nc2cc(Cl)cc(NC3CCC(=O)NC3=O)c2)CC1` (single isomer, unassigned) [Example 113]: the “Y (AR degradation efficiency, % of DMSO control)” value is listed as “* (0<Y<=25%)” and the DC50 was less than 100 nM.
For `CCc1cc(N2C(=S)N(c3cnc(C#N)c(C(F)(F)F)c3)C(=O)C2(C)C)ccc1OCCN1CCN([C@@H](C)C(=O)Nc2cc(Cl)cc(NC3CCC(=O)NC3=O)c2)CC1` (single isomer, unassigned) [Example 114] the same measures were “* (0<Y<=25%)” and less than 100 nM.
For `CCc1cc(N2C(=S)N(c3ccc(C#N)c(C(F)(F)F)c3)C(=O)C2(C)C)ccc1OC[C@H](C)N1C[C@@H](C)N(CC(=O)Nc2cccc(NC3CCC(=O)NC3=O)c2)[C@@H](C)C1` (single isomer, unassigned) [Example 236] the same measures were “** (25%<Y<=35%)” and 100 to 500 nM.
For `CCc1cc(N2C(=S)N(c3ccc(C#N)c(C(F)(F)F)c3)C(=O)C2(C)C)ccc1OC[C@@H](C)N1C[C@@H](C)N(CC(=O)Nc2cccc(NC3CCC(=O)NC3=O)c2)[C@@H](C)C1` (single isomer, unassigned) [Example 237] the same measures were “** (25%<Y<=35%)” and 100 to 500 nM.
With `CCc1cc(N2C(=S)N(c3cnc(C#N)c(C(F)(F)F)c3)C(=O)C2(C)C)ccc1O[C@H](C)CN1C[C@@H](C)N(CC(=O)Nc2cccc(NC3CCC(=O)NC3=O)c2)[C@@H](C)C1` (single isomer, unassigned) [Example 239], the “Y (AR degradation efficiency, % of DMSO control)” value was “* (0<Y<=25%)” and the DC50 was less than 100 nM.
For `CCc1cc(N2C(=S)N(c3cnc(C#N)c(C(F)(F)F)c3)C(=O)C2(C)C)ccc1O[C@@H](C)CN1C[C@@H](C)N(CC(=O)Nc2cccc(NC3CCC(=O)NC3=O)c2)[C@@H](C)C1` (single isomer, unassigned) [Example 240], in that order: “** (25%<Y<=35%)” and 100 to 500 nM.
In the case of `CCc1cc(N2C(=S)N(c3ccc(C#N)c(C(F)(F)F)c3)C(=O)C2(C)C)ccc1O[C@H](C)CN1C[C@@H](C)N(CC(=O)Nc2cccc(NC3CCC(=O)NC3=O)c2)[C@@H](C)C1` (single isomer, unassigned) [Example 241], the “Y (AR degradation efficiency, % of DMSO control)” value is “* (0<Y<=25%)” and the half-maximal degradation concentration (DC50) lay within 100 to 500 nM.
For `CCc1cc(N2C(=S)N(c3ccc(C#N)c(C(F)(F)F)c3)C(=O)C2(C)C)ccc1O[C@@H](C)CN1C[C@@H](C)N(CC(=O)Nc2cccc(NC3CCC(=O)NC3=O)c2)[C@@H](C)C1` (single isomer, unassigned) [Example 242] the same measures were “*** (35%<Y<50%)” and 500 to 1000 nM.
On to `CC1(C)C(=O)N(c2ccc(C#N)c(C(F)(F)F)c2)C(=S)N1c1ccc(OCCN2CCN(CC(=O)Nc3cccc(NC4CCC(=O)NC4=O)c3)CC2)c(F)c1` (stereo not drawn) [Example 1, formate], for which the “Y (AR degradation efficiency, % of DMSO control)” value is on record as “*** (35%<Y<50%)” and the 50% degradation concentration (DC50) is less than 100 nM.
For `CC1(C)C(=O)N(c2cnc(C#N)c(C(F)(F)F)c2)C(=S)N1c1ccc(OCCN2CCN(CC(=O)Nc3cccc(NC4CCC(=O)NC4=O)c3)CC2)cc1` (stereo not drawn) [Example 2, hydrochloride], in that order: “** (25%<Y<=35%)” and less than 100 nM.
For `CC1(C)C(=O)N(c2ccc(C#N)c(C(F)(F)F)c2)C(=S)N1c1ccc(OCCN2CCN(CC(=O)Nc3cccc(NC4CCC(=O)NC4=O)c3)CC2)c(Cl)c1` (stereo not drawn) [Example 3, hydrochloride], in that order: “* (0<Y<=25%)” and less than 100 nM.
With `CC1(C)C(=O)N(c2ccc(C#N)c(C(F)(F)F)c2)C(=S)N1c1ccc(OCCN2CCN(CC(=O)Nc3cc(Cl)cc(NC4CCC(=O)NC4=O)c3)CC2)c(F)c1` (stereo not drawn) [Example 4, hydrochloride], the “Y (AR degradation efficiency, % of DMSO control)” value is given as “* (0<Y<=25%)” and the DC50 is less than 100 nM.
`CC1(C)C(=O)N(c2cnc(C#N)c(C(F)(F)F)c2)C(=S)N1c1ccc(OCCN2CCN(CC(=O)Nc3cccc(NC4CCC(=O)NC4=O)c3)CC2)c(Cl)c1` (stereo not drawn) [Example 5, hydrochloride]: the “Y (AR degradation efficiency, % of DMSO control)” value is “* (0<Y<=25%)” and the DC50 was less than 100 nM.
For `N#Cc1ncc(N2C(=O)C3(CCC3)N(c3ccc(OCCN4CCN(CC(=O)Nc5cccc(NC6CCC(=O)NC6=O)c5)CC4)c(F)c3)C2=S)cc1C(F)(F)F` (stereo not drawn) [Example 6], in that order: “** (25%<Y<=35%)” and less than 100 nM.
As for `N#Cc1ccc(N2C(=O)C3(CCC3)N(c3ccc(OCCN4CCN(CC(=O)Nc5cccc(NC6CCC(=O)NC6=O)c5)CC4)c(Cl)c3)C2=S)cc1C(F)(F)F` (stereo not drawn) [Example 7, hydrochloride], the “Y (AR degradation efficiency, % of DMSO control)” value was “* (0<Y<=25%)” and the half-maximal degradation concentration (DC50) was less than 100 nM.
For `N#Cc1ccc(N2C(=O)C3(CCC3)N(c3ccc(OCCN4CCN(CC(=O)Nc5cccc(NC6CCC(=O)NC6=O)c5)CC4)c(F)c3)C2=S)cc1C(F)(F)F` (stereo not drawn) [Example 8, hydrochloride], the “Y (AR degradation efficiency, % of DMSO control)” value is “** (25%<Y<=35%)” and the DC50 was less than 100 nM.
Take `CC1(C)C(=O)N(c2ccc(C#N)c(C(F)(F)F)c2)C(=S)N1c1ccc(OCCN2CCN(CC(=O)Nc3cccc(NC4CCC(=O)NC4=O)c3)CC2)c(C2CC2)c1` (stereo not drawn) [Example 9, hydrochloride]: the “Y (AR degradation efficiency, % of DMSO control)” value is reported as “* (0<Y<=25%)” and the DC50 was less than 100 nM.
For the compound `CCc1cc(N2C(=S)N(c3ccc(C#N)c(C(F)(F)F)c3)C(=O)C2(C)C)ccc1OCCN1CCN(CC(=O)Nc2cccc(NC3CCC(=O)NC3=O)c2)CC1` (stereo not drawn) [Example 10, hydrochloride], the “Y (AR degradation efficiency, % of DMSO control)” value is listed as “* (0<Y<=25%)” and the DC50 was less than 100 nM.

Broadly, the DC50 is the concentration giving 50% degradation.
